Measured values from patent publication US12661355B2, “Compounds and methods for inducing UCP1 expression” (The Regents of the University of California, priority 2020, dated 2026).

Experiments:
Ucp1 = assay: Gene expression by qPCR in immortalized brown adipocytes; assay type: cell-based, mouse
Experimental: Primary brown adipocytes were isolated according to known methods. An established mouse brown adipocyte cell line was obtained from Dr. Bruce Spiegelman (Dana-Farber Cancer Institute, Boston, USA). To differentiate primary and immortalized brown adipocytes, cells were grown until confluency in DMEM containing 10% FBS, 25 mM glucose 1 mM pyruvate, 2 mM glutamine, 20 nM insulin, 1 nM T3, and antibiotics. Once confluent (day 0), differentiation was induced by supplementing the medium with 0.5 mM IBMX, 0.5 μM dexamethasone, and 0.125 mM indomethacin, for 2 days. Differentiation was continued in the original medium (without IBMX, dexamethasone and indomethacin) for 7-10 days.
TScreening was conducted at the UCLA Molecular Screening Shared Resource using automated instruments Immortalized brown adipocytes were differentiated in T225 flasks and plated in Matrix 384-well plates (26,000 cells per well) with white flat bottom (ThermoScientific) using trypsin and collagenase type II (Sigma C6885). The small molecule libraries screened were a BioMol library (204 compounds), an FDA-approved drug library (1120 compounds), a Microsource spectrum collection (2000 compounds), and a druggable compound set (8000 compounds). Molecules were delivered at 10 μM final concentration in DMSO. The screen was performed in duplicate on different days. After 18 h, luciferase activity was measured with Bright-Glo luciferase assay system and an LJL instrument. Data were normalized to the basal response (100% activity) in the presence of DMSO. Following the primary screen, 92 molecules were selected for validation and used to treat brown adipocyte cells plated in a 96-well plate overnight. RNA was extracted with an SV 96 Total RNA Isolation System (Promega). Compounds used for follow-up studies were identified using search tools available from Molport (molport.com), and ordered from the same company.
RNA levels were measured by qPCR according to known methods. Briefly, RNA was extracted with TRIzol (Invitrogen) and reverse transcribed with iScript (Bio-Rad). Real-time PCR analysis was performed with a CFX Connect (Bio-Rad).
Mouse RNA levels were measured by qPCR according to known methods. Data were normalized to B2m and Tbp reference genes. Human RNA was extracted using an RNA Mini Plus kit (Zymo) and gene expression determined by Taqman assay. The 1-step qPCR was run on a QuantStudio 12K Flex Real Time PCR System (ThermoFisher) using the following protocol: 50° C. for 5 minutes, 95° C. for 20 seconds, 40 cycles of 95° C. for 15 seconds and 60° C. for 60 seconds. Data were normalized to PPIA and PSMB2 reference genes. For global gene expression analysis, RNA isolated from brown adipocytes treated with compounds as indicated (four biological replicates) was hybridized to Illumina mouse Ref 8 V2.0 bead chips at the University of California, Los Angeles Neuroscience Genomics Core as previously described. Data were processed with GenomeStudio V2011.1 using the quantile normalization, background subtraction, and a present call of P<0.05.

[1] = test system: phospho-(Ser/Thr) PKA substrate; assay: Phosphorylation of PKA substrates by Western blot in brown adipocytes; assay type: cell-based, mouse; conditions: overnight, 10 μM
Experimental: Cells and tissues were lysed in 10 mM Tris pH 7.5, 10 mM NaCl, 1 mM EDTA and 0.5% Triton X-100, supplemented with complete mini EDTA-free protease (Roche Diagnostics) and phosphatase (Cocktail 2 and 3, Sigma) inhibitors, followed by 10 second sonication. For analysis of mitochondrial proteins, mitochondria were isolated from cells by dual centrifugation, as described. Protein lysates were separated by SDS-PAGE and transferred to a nitrocellulose membrane. Transfer was confirmed by Ponceau staining (P7170, Sigma). After blocking in 5% milk, 0.1% Tween-20 in Tris-buffered saline (TBS), primary antibody was incubated overnight at 4° C. in 5% bovine serum albumin and 0.1% Tween-20 in TBS. Primary antibodies against ACTB (GTX109639, GeneTex), AKAP1 (5203, Cell Signaling), AKAP6 (07-087, Millipore), Cytochrome c (136F3, Cell Signaling), electron transport chain protein complexes (Total OXPHOS rodent WB antibody cocktail ab110413, Abcam), GAPDH (GTX100118, Genetex), active p38 MAPK (V1211, Promega), total p38 MAPK (8690, Cell Signaling), PGC1α (AB3242, Millipore), phospho-(Ser/Thr) PKA substrate (9621, Cell Signaling), PKA C-α (4782, Cell Signaling), PKA RII-β (ab75993, Abcam), and UCP1 (662045, Calbiochem) were used at 1:2000. […] Quantification using representative bands from the Ponceau staining was performed with ImageJ.

[2] = immortalized brown adipocytes, 10 μM

| Compound | Ucp1 expression induction (Ucp1; 1 μM compared with 10 μM) | duration of effect on Ucp1 expression (Ucp1; 10 μM) | earliest time at which effect on Ucp1 expression was observed (Ucp1; 10 μM) [h] | expression of markers of brown adipocyte identity, mitochondrial function and fatty acid oxidation genes (Ucp1; [2]) | concentration of optimal Ucp1 expression induction (Ucp1; titration, overnight treatment) [µM] | phosphorylation of PKA substrates [1] | potency on Ucp1 induction compared with AST070 (Ucp1; 10 μM) | expression of lipolytic enzymes (Atgl, Hsl) and FGF21 at the mRNA level (Ucp1; immortalized brown adipocytes, 10 μM overnight) |
| --- | --- | --- | --- | --- | --- | --- | --- | --- |
| O=C(CSc1nc2ccccc2c(=O)[nH]1)Nc1ccc2c(c1)OCCO2 [AST070, N-(2,3-dihydro-1,4-benzodioxin-6-yl)-2-[(4-oxo-3,4-dihydroquinazolin-2-yl)sulfanyl]acetamide] | lower induction | at least 24 h | 5 | promoted expression | 10 | increased the levels of phosphorylation | – | – |
| COc1ccc(NC(=O)CSc2nc3ccccc3c(=O)[nH]2)c(OC)c1 [Z160] | – | – | – | promoted expression | – | increased the levels of phosphorylation | greater potency than AST070 | increased expression |
